Numbers after ± are expanded uncertainties.
Assay: mn = molality of the nth substance listed, in mol/kg
Conditions: 100 kPa, Liquid; for viscosity: Capillary tube (Ostwald / Ubbelohde) method; for electrical conductivity: Direct current cell with electrodes; for mass density: Vibrating tube method

CCCCn1cc[n+](C)c1.O=C([O-])c1ccccc1O [1-butyl-3-methylimidazolium salicylate] + O
Conditions | electrical conductivity [S/m] | mass density [kg/m3] | viscosity [mPa·s]
293.15 K, m1 = 0.001 | 0.007 ± 0.0012 | – | –
293.15 K, m1 = 0.0037 | 0.0231 ± 0.0013 | – | –
293.15 K, m1 = 0.00579 | – | 998.44 ± 1.6 | –
293.15 K, m1 = 0.0058 | – | – | 1.031 ± 0.021
293.15 K, m1 = 0.0062 | 0.0356 ± 0.0014 | – | –
293.15 K, m1 = 0.007 | – | 998.49 ± 1.6 | –
293.15 K, m1 = 0.0071 | – | – | 1.035 ± 0.022
293.15 K, m1 = 0.0072 | 0.0399 ± 0.0015 | – | –
293.15 K, m1 = 0.008 | 0.0439 ± 0.0016 | – | –
293.15 K, m1 = 0.00801 | – | 998.53 ± 1.6 | –
293.15 K, m1 = 0.01 | 0.0517 ± 0.0017 | – | –
293.15 K, m1 = 0.01056 | – | 998.64 ± 1.6 | –
293.15 K, m1 = 0.0117 | – | – | 1.046 ± 0.022
293.15 K, m1 = 0.01278 | – | 998.73 ± 1.6 | –
293.15 K, m1 = 0.0144 | 0.0674 ± 0.0021 | – | –
293.15 K, m1 = 0.0158 | – | 998.86 ± 1.6 | –
293.15 K, m1 = 0.01707 | – | 998.92 ± 1.6 | –
293.15 K, m1 = 0.0205 | – | – | 1.065 ± 0.022
293.15 K, m1 = 0.02056 | – | 999.07 ± 1.6 | –
293.15 K, m1 = 0.0221 | 0.0901 ± 0.0028 | – | –
293.15 K, m1 = 0.02523 | – | 999.27 ± 1.6 | –
293.15 K, m1 = 0.0353 | – | – | 1.091 ± 0.023
293.15 K, m1 = 0.0384 | – | – | 1.096 ± 0.023
293.15 K, m1 = 0.0552 | – | – | 1.123 ± 0.023
293.15 K, m1 = 0.0765 | – | – | 1.155 ± 0.024
298.15 K, m1 = 0.001 | 0.0079 ± 0.0014 | – | –
298.15 K, m1 = 0.0037 | 0.0262 ± 0.0015 | – | –
298.15 K, m1 = 0.00579 | – | 997.28 ± 1.6 | –
298.15 K, m1 = 0.0058 | – | – | 0.925 ± 0.019
298.15 K, m1 = 0.0062 | 0.0404 ± 0.0016 | – | –
298.15 K, m1 = 0.007 | – | 997.33 ± 1.6 | –
298.15 K, m1 = 0.0071 | – | – | 0.93 ± 0.019
298.15 K, m1 = 0.0072 | 0.0452 ± 0.0017 | – | –
298.15 K, m1 = 0.008 | 0.0498 ± 0.0018 | – | –
298.15 K, m1 = 0.00801 | – | 997.37 ± 1.6 | –
298.15 K, m1 = 0.01 | 0.0588 ± 0.002 | – | –
298.15 K, m1 = 0.01056 | – | 997.48 ± 1.6 | –
298.15 K, m1 = 0.0117 | – | – | 0.943 ± 0.02
298.15 K, m1 = 0.01278 | – | 997.57 ± 1.6 | –
298.15 K, m1 = 0.0144 | 0.0771 ± 0.0024 | – | –
298.15 K, m1 = 0.0158 | – | 997.7 ± 1.6 | –
298.15 K, m1 = 0.01707 | – | 997.75 ± 1.6 | –
298.15 K, m1 = 0.0205 | – | – | 0.964 ± 0.02
298.15 K, m1 = 0.02056 | – | 997.9 ± 1.6 | –
298.15 K, m1 = 0.0221 | 0.103 ± 0.0032 | – | –
298.15 K, m1 = 0.02523 | – | 998.11 ± 1.6 | –
298.15 K, m1 = 0.0353 | – | – | 0.993 ± 0.021
298.15 K, m1 = 0.0384 | – | – | 0.998 ± 0.021
298.15 K, m1 = 0.0552 | – | – | 1.026 ± 0.021
298.15 K, m1 = 0.0765 | – | – | 1.058 ± 0.022
303.15 K, m1 = 0.001 | 0.0089 ± 0.0016 | – | –
303.15 K, m1 = 0.0037 | 0.0297 ± 0.0017 | – | –
303.15 K, m1 = 0.00579 | – | 995.88 ± 1.6 | –
303.15 K, m1 = 0.0058 | – | – | 0.838 ± 0.017
303.15 K, m1 = 0.0062 | 0.0454 ± 0.0018 | – | –
303.15 K, m1 = 0.007 | – | 995.93 ± 1.6 | –
303.15 K, m1 = 0.0071 | – | – | 0.842 ± 0.018
303.15 K, m1 = 0.0072 | 0.0507 ± 0.0019 | – | –
303.15 K, m1 = 0.008 | 0.0559 ± 0.002 | – | –
303.15 K, m1 = 0.00801 | – | 995.97 ± 1.6 | –
303.15 K, m1 = 0.01 | 0.0659 ± 0.0022 | – | –
303.15 K, m1 = 0.01056 | – | 996.07 ± 1.6 | –
303.15 K, m1 = 0.0117 | – | – | 0.857 ± 0.018
303.15 K, m1 = 0.01278 | – | 996.17 ± 1.6 | –
303.15 K, m1 = 0.0144 | 0.0871 ± 0.0027 | – | –
303.15 K, m1 = 0.0158 | – | 996.29 ± 1.6 | –
303.15 K, m1 = 0.01707 | – | 996.35 ± 1.6 | –
303.15 K, m1 = 0.0205 | – | – | 0.879 ± 0.018
303.15 K, m1 = 0.02056 | – | 996.5 ± 1.6 | –
303.15 K, m1 = 0.0221 | 0.118 ± 0.0036 | – | –
303.15 K, m1 = 0.02523 | – | 996.7 ± 1.6 | –
303.15 K, m1 = 0.0353 | – | – | 0.911 ± 0.019
303.15 K, m1 = 0.0384 | – | – | 0.917 ± 0.019
303.15 K, m1 = 0.0552 | – | – | 0.945 ± 0.02
303.15 K, m1 = 0.0765 | – | – | 0.979 ± 0.02
308.15 K, m1 = 0.001 | 0.0099 ± 0.0017 | – | –
308.15 K, m1 = 0.0037 | 0.0328 ± 0.0018 | – | –
308.15 K, m1 = 0.00579 | – | 994.27 ± 1.6 | –
308.15 K, m1 = 0.0058 | – | – | 0.765 ± 0.016
308.15 K, m1 = 0.0062 | 0.0501 ± 0.002 | – | –
308.15 K, m1 = 0.007 | – | 994.32 ± 1.6 | –
308.15 K, m1 = 0.0071 | – | – | 0.77 ± 0.016
308.15 K, m1 = 0.0072 | 0.057 ± 0.0022 | – | –
308.15 K, m1 = 0.008 | 0.0623 ± 0.0022 | – | –
308.15 K, m1 = 0.00801 | – | 994.36 ± 1.6 | –
308.15 K, m1 = 0.01 | 0.0745 ± 0.0025 | – | –
308.15 K, m1 = 0.01056 | – | 994.46 ± 1.6 | –
308.15 K, m1 = 0.0117 | – | – | 0.787 ± 0.016
308.15 K, m1 = 0.01278 | – | 994.55 ± 1.6 | –
308.15 K, m1 = 0.0144 | 0.0986 ± 0.0031 | – | –
308.15 K, m1 = 0.0158 | – | 994.68 ± 1.6 | –
308.15 K, m1 = 0.01707 | – | 994.74 ± 1.6 | –
308.15 K, m1 = 0.0205 | – | – | 0.811 ± 0.017
308.15 K, m1 = 0.02056 | – | 994.89 ± 1.6 | –
308.15 K, m1 = 0.0221 | 0.133 ± 0.0041 | – | –
308.15 K, m1 = 0.02523 | – | 995.09 ± 1.6 | –
308.15 K, m1 = 0.0353 | – | – | 0.845 ± 0.018
308.15 K, m1 = 0.0384 | – | – | 0.851 ± 0.018
308.15 K, m1 = 0.0552 | – | – | 0.882 ± 0.018
308.15 K, m1 = 0.0765 | – | – | 0.916 ± 0.019
313.15 K, m1 = 0.001 | 0.011 ± 0.0019 | – | –
313.15 K, m1 = 0.0037 | 0.0362 ± 0.002 | – | –
313.15 K, m1 = 0.00579 | – | 992.45 ± 1.6 | –
313.15 K, m1 = 0.0058 | – | – | 0.701 ± 0.015
313.15 K, m1 = 0.0062 | 0.0551 ± 0.0022 | – | –
313.15 K, m1 = 0.007 | – | 992.5 ± 1.6 | –
313.15 K, m1 = 0.0071 | – | – | 0.707 ± 0.015
313.15 K, m1 = 0.0072 | 0.0629 ± 0.0024 | – | –
313.15 K, m1 = 0.008 | 0.0686 ± 0.0025 | – | –
313.15 K, m1 = 0.00801 | – | 992.54 ± 1.6 | –
313.15 K, m1 = 0.01 | 0.0826 ± 0.0028 | – | –
313.15 K, m1 = 0.01056 | – | 992.64 ± 1.6 | –
313.15 K, m1 = 0.0117 | – | – | 0.723 ± 0.015
313.15 K, m1 = 0.01278 | – | 992.73 ± 1.6 | –
313.15 K, m1 = 0.0144 | 0.111 ± 0.0035 | – | –
313.15 K, m1 = 0.0158 | – | 992.86 ± 1.6 | –
313.15 K, m1 = 0.01707 | – | 992.91 ± 1.6 | –
313.15 K, m1 = 0.0205 | – | – | 0.749 ± 0.016
313.15 K, m1 = 0.02056 | – | 993.06 ± 1.6 | –
313.15 K, m1 = 0.0221 | 0.149 ± 0.0046 | – | –
313.15 K, m1 = 0.02523 | – | 993.26 ± 1.6 | –
313.15 K, m1 = 0.0353 | – | – | 0.783 ± 0.016
313.15 K, m1 = 0.0384 | – | – | 0.789 ± 0.016
313.15 K, m1 = 0.0552 | – | – | 0.819 ± 0.017
313.15 K, m1 = 0.0765 | – | – | 0.853 ± 0.018
